Experimental data taken from patent publication US20210337791A1, “Methods For Killing Insects Such As Drosophila species” (The United States of America, as represented by the …, priority 2020, published 2021).

Assays:
Drosophila suzukii = experiment: Feeding test of D. suzukii adults with tyramine or M-tyramine sucrose solutions (fly mortality); type: in vivo; conditions: 7 days; for fly mortality, first and second experiments: 1% solution in 0.5 M sucrose; for mortality: 4% compound in 0.5 M sucrose
Method: Flies and sugars: Drosophila suzukii used in these experiments were from a colony maintained at 22±5° C. under a photoperiod of L:D 16:8 h and a relative humidity of 60±5% RH at the Horticultural Crops Research Unit, USDA ARS in Corvallis, Oreg. Wildtype flies collected from infested fruits in Corvallis, Oreg., were used to start the colony. Standard rearing methods and diet are described by Woltz et al. (Journal of Applied Entomology, 139: 759-770 (2015)). Newly emerged adult males and females were collected daily and maintained in cages with water and diet until they were specific ages for experimentation.
The chemical components were tyramine (98%, Sigma-Aldrich), N-methyl-tyramine (shortened name=M-tyramine), 95%, Combi-Blocks, Inc.), and sucrose (>99%, Fisher Scientific, Hampton, N.H.).
The effect of tyramine and M-tyramine formulations on fly mortality-I: Ten 5-day old flies (5 males and 5 females) were introduced into a plastic vial and given a tube (1.5 ml) containing different water-based solutions (FIG. 1). For the first experiment various pairs were tested (FIG. 2A): (a) Sucrose 0.5 M only; (b) Tyramine 0.1%+Sucrose 0.5 M (0.1% Tyramine); (c) Tyramine 1%+Sucrose 0.5 M (1% Tyramine); (d) M-Tyramine 0.1%+Sucrose 0.5 M (0.1% M-Tyramine); and (e) M-Tyramine 1%+Sucrose 0.5 M (1% M-Tyramine).
The effect of tyramine and M-tyramine formulations on fly mortality-II: The second experiment consisted of the following (FIG. 2B): (a) Sucrose 0.5 M only; (b) Tyramine 1%+Sucrose 0.5 M (1% Tyramine); (c) Tyramine 2%+Sucrose 0.5 M (2% Tyramine); (d) M-Tyramine 1%+Sucrose 0.5 M (1% M-Tyramine), and (e) M-Tyramine 2%+Sucrose 0.5 M (2% M-Tyramine).
The effect of tyramine and M-tyramine formulations on fly mortality-III: The third experiment consisted of the following (FIG. 2C): (a) Sucrose 0.5 M only; (b) Tyramine 2%+Sucrose 0.5 M (2% Tyramine); (c) Tyramine 4%+Sucrose 0.5 M (4% Tyramine); (d) M-Tyramine 2%+Sucrose 0.5 M (2% M-Tyramine); and (e) M-Tyramine 4%+Sucrose 0.5 M (4% M-Tyramine). Survivorship of flies was checked daily for 7 days. Each pair per experiment was replicated at least eight times.

Aqueous solubility = type: physicochemical
From the text: By the term “effective amount” of a compound or property as provided herein is meant such amount as is capable of performing the function of the compound or property for which an effective amount is expressed. As will be pointed out below, the exact amount required will vary from process to process, depending on recognized variables such as the compounds employed and the processing conditions observed. Thus, it is not possible to specify an exact “effective amount.” However, an appropriate effective amount may be determined by one of ordinary skill in the art using only routine experimentation. Generally the concentration of the compounds will be, but not limited to, at least about 0.1% (e.g., at least 0.1%; for example in an aqueous solution), at least about 1% (e.g., at least 1%), preferably at least about 2% (e.g., at least 2%), preferably at least about 3% (e.g., at least 3%), preferably at least about 4% (e.g., at least 4%). […] However, higher concentrations than the limits shown could be obtained using solubilizing agents (e.g., DMSO of DMF) or chelating agents; for example, at least about 5% (e.g., at least 5%), preferably at least about 6% (e.g., at least 6%), preferably at least about 7% (e.g., at least 7%), preferably at least about 8% (e.g., at least 8%), preferably at least about 9% (e.g., at least 9%), and preferably at least about 10% (e.g., at least 10%). Concentrations lower than about 2% would require longer duration of exposure, such as the composition in a bait station to which the target insects have long term access to, thus increasing the total dose.

fire ant = experiment: Feeding of biogenic amines to fire ants (worker and queen mortality); type: in vivo; conditions: for fire ant worker mortality versus sucrose controls: biogenic amines all formulated at 1.0%
tawny crazy ant workers = experiment: Pest ant specificity of tyramine using tawny crazy ant workers; type: in vivo

With `CNCCc1ccc(O)cc1` [M-tyramine, N-methyl-tyramine] the “fly mortality, first and second experiments” value (Drosophila suzukii) was “not statistically consistent”, the mortality (Drosophila suzukii) was 100% and the “aqueous solubility (upper limit)” value (Aqueous solubility; free base) was about 3.4%. For the same compound, the “aqueous solubility (upper limit)” value (Aqueous solubility; salt form) was “about 10%”.

For `NCCc1ccc(O)c(O)c1` [dopamine], the “fire ant worker mortality versus sucrose controls” value (fire ant) was “no different than the sucrose controls”.

In the case of `NCCc1c[nH]cn1` [histamine], the “fire ant worker mortality versus sucrose controls” value (fire ant) is reported as “no different than the sucrose controls”.

With `NCC(O)c1ccc(O)cc1` (centres unmarked) [octopamine] the “fire ant worker mortality versus sucrose controls” value (fire ant) was “no different than the sucrose controls”.

For `NCCc1c[nH]c2ccc(O)cc12` [serotonin], the “fire ant worker mortality versus sucrose controls” value (fire ant) was “no different than the sucrose controls”.

With `NCCc1ccc(O)cc1` [tyramine] the “fly mortality versus 0.5 M sucrose negative control” value (Drosophila suzukii; 0.1% solution in 0.5 M sucrose) was “not significantly different”, the “fly mortality, first and second experiments” value (Drosophila suzukii) was “not statistically consistent” and the mortality (Drosophila suzukii) was 100%. The “fire ant worker mortality versus sucrose controls” value (fire ant) was “significant fire ant worker mortality”, the “mortality in small lab colonies” value (fire ant; tyramine fed to small lab fire ant colonies) was “worker and queen fire ant mortality” and the “fire ant worker mortality” value (fire ant; workers fed 1.0, 0.1, and 0.01% wt(g)/vol(L)) was “significant mortality”. For the same compound, the “mortality of tawny crazy ant workers versus controls” value (tawny crazy ant workers) was “did not result in mortality greater than the controls”, the “aqueous solubility (upper limit)” value (Aqueous solubility; free base) was “about 1%” and the “aqueous solubility (upper limit)” value (Aqueous solubility; salt form) was “about 5%”.
